Laboratory results: publication PMC10021052, “Novel multivalent S100A8 inhibitory peptides attenuate tumor progression and metastasis by inhibiting the TLR4-dependent pathway” (Cancer Gene Therapy, 2023)
“Also recorded” adds a separate entry of the source.

Experiments:
SW480 cells = experiment: ELISA, IL-8 and VEGF secretion of SW480 cells; format: cell-based, human; details: peptide pretreatment, S100A8 24 h, supernatant ELISA; *P < 0.05 vs S100A8
Experimental: S100A8 recombinant protein was purified as previously described. These proteins were immobilized on Maxisorp plates (Thermo Fisher Scientific, Waltham, MA, USA), followed by blocking with protein-free blocking buffer (Thermo Fisher Scientific). TLR4/MD-2 recombinant proteins with various concentrations of candidate peptides were then added to the indicated S100A8-immobilized ELISA plates for 2 h. The plates were washed, incubated with anti-TLR4 antibody, and HRP-conjugated secondary antibody, followed by the addition of substrate. The reaction was stopped by addition a 2N H2SO4 solution. Absorbance OD450/OD650 was measured using a microplate reader (Thermo Fisher Scientific). Maxisorp plates were also used for peptide coating. After blocking with protein-free blocking buffer, the coated plates were washed, and TLR4/MD-2 recombinant protein (2 µg/ml) was added to each well. The plates were incubated with a TLR4 antibody followed by horseradish peroxidase (HRP)-labeled anti-rabbit IgG. For detection of IL8 and VEGF in culture supernatants, SW480 cells were pretreated with the indicated peptides, and followed by stimulation with S100A8 for 24 h. The amount of interleukin-8 (IL-8) or VEGF in the supernatants were analyzed by ELISA kits (R&D Systems, Mineapolis, MN) according to the manufacturer’s instructions.

[1] = system: p38 and p65 (NF-κB) in SW480 cells; experiment: Western blotting, S100A8-induced phosphorylation of p38 and p65 in SW480 cells; format: cell-based; details: 2.5 µM pretreatment, human S100A8 30 min
Experimental: Cells were lysed in lysis buffer (50 mM Tris-HCl [pH 7.4], 150 mM NaCl, 5 mM Na4P2O7, 10 mM β-glycerophosphate, 25 mM NaF, 1 mM EDTA, 1 mM EGTA, 1 mM Na3VO4, and 1% [v/v] Triton X-100) containing the cOmplete^TM Mini protease inhibitor cocktail (Roche Diagnostics, Indianapolis, IN, USA) as described previously. Cell lysates (20 µg) were separated using SDS-PAGE and transferred to an Immun-Blot PVDF membrane (Bio-Rad, Hercules, CA, USA). After blocking with Blocking One or Blocking One-P (Nacalai tesque, Kyoto, Japan), membranes were probed with the indicated antibodies, followed by HRP-labeled anti-rabbit IgG and anti-mouse IgG (GE Healthcare). Signals were visualized using Immobilon Western HRP Substrate (Millipore, Billerica, USA).
Fig. 4 Improvement of competitive inhibition activity by divalent peptide3A5. A The binding capacity was measured at the indicated concentration using an ELISA-based assay. Similar results were obtained in three independent experiments. B SW480 cells were pretreated with 2.5 µM of divalent peptide3A5, and then stimulated with human S100A8 recombinant protein. After 30 min, cell lysates were subjected to western blotting using the indicated antibody. The divalent peptide#3 or peptide3A5 reduced the expression of S100A8-mediated IL-8 (C) and VEGF (D) induction. […]

[2] = system: SW480-transplanted xenograft; experiment: Tumor growth in SW480-transplanted xenograft model; format: in vivo, Balb nu/nu mice; details: every 3 days; for tumor growth, divalent peptide3A5 monotherapy: SW480 xenograft, various doses, n = 5–6 mice per group; for tumor growth, combination with 5-FU: divalent peptide3A5 5 mg/kg i.p. + 5-FU 20 mg/kg i.p.
[3] = system: subcutaneous SW480 tumors; experiment: Immunohistochemistry of subcutaneous SW480 tumors: proliferation and caspase-3; format: in vivo, Balb nu/nu mice; details: Supplementary Fig. 2
Experimental: (§1) To immunostain tumor vasculatures, the cryo sections (6 µm) obtained from frozen primary tumors, were incubated with anti-CD31 (BD Pharmingen, Cat No. 550274), and/or anti-α-SMA-Cy3 (Sigma-Aldrich, Cat No. C6198) followed by AlexaFlour 488-conjugated rat IgG secondary antibodies (Thermo Fisher Scientific) were used to visualize the signals by a confocal microscopy (LSM-710; Carl Zeiss). DAPI staining was used for nuclear staining. For immunohistochemistry, the paraffin-embedded sections were cut 4 µm thick and then deparaffinized, rehydrated and then treated for antigen retrieval. The sections were incubated with the indicated antibody overnight, followed by incubation with ImmPRESS HRP Reagent (Vector, Newark, CA). ImmPACT DAB (Vector) was used for visualization of the signals. The images were captured by BZ-X800 (Keyence, Osaka, Japan).

Balb nu/nu mice = experiment: Toxicity: biochemical, body weight and hematological tests; format: in vivo, mouse; details: Supplementary Table 1
Text: We then examined the effect of divalent peptide3A5 on tumor growth in vivo.

C57BL6 mice = experiment: Toxicity in C57BL6 mice; format: in vivo, mouse; details: Supplementary Table 1
Text: Because S100A8 inhibitory peptides target S100A8-TLR4/MD-2, which plays a role in innate immunity, the complete functional activities of S100A8 inhibitory peptides are expected to be observed in immunocompetent models. To date, syngeneic models are one of the only options to test physiological interactions between tumors and immune cells. […] LLC cells were identified as non-responders to anti-PD-1/programmed death-ligand 1 (PD-L1) therapy. […] We then examined the effect of divalent peptide3A5 in mouse MC38 colorectal cancer cells used as anti-PD-1 responder cells. We previously confirmed that MC38 endogenously expressed TLR4/MD-2 [8].

MDSCs = MDSCs in LLC tumor-bearing mice; format: in vivo, C57BL/6J mice; details: peripheral blood of LLC-tumor-bearing mice; *P < 0.05 vs control
CD8+ cells = experiment: Intratumoral infiltrating CD8+ cells; format: in vivo, mouse; details: Supplementary Fig. 3A
Experimental: as §1

PKH26-labeled LLC cells = experiment: Lung dissemination of PKH26-labeled LLC cells in TCM-sensitized mice; format: in vivo, C57BL/6J mice; details: 10 mg/kg i.p. 1 h before last TCM injection; lungs 16 h after cells; 5–6 mice per group; *P < 0.05 vs control
[4] = system: tumor cells and macrophages; experiment: Cytokine/chemokine induction in tumor cells and macrophages; format: cell-based; details: possible mechanism scheme, Fig. 7I
LLC tumor = experiment: Tumor growth in LLC tumor-bearing mice; details: *P < 0.05 vs control; for LLC tumor growth, monotherapy: 10 mg/kg i.p. every 3 days, five mice per group
Text: Balb nu/nu or C57BL/6J mice were purchased from Clea Japan Inc. (Tokyo, Japan). Mice were used for experiments at 2–3 months of age. For SW480 transplanted xenograft model, SW480 cells were subcutaneously implanted into male Balb nu/nu mice. […] For generation of the Lewis lung cancer implantation mouse model, LLC cells were subcutaneously implanted into male C57BL/6J mice. […] Anti-PD-1 antibodies (Biolegend, San Diego, CA, USA) were used for combination therapy. To determine the tumor volume, the longitudinal diameter (length) and transverse diameter (width) were determined. Tumor volume based on measurements by Vernier calipers was calculated as tumor volume = ½ (length × width^2). For in vivo S100A8 stimulation, C57BL/6J mice were intravenously injected with mammalian-derived S100A8. Four hours after the i.v. injection, mice were sacrificed, and minced mouse lungs were digested with collagenase/dispase/DNase solution. Collected cells were incubated with anti-CD11b-PE (BD Bioscience), anti-Ly6G-FITC (BD Bioscience), and anti-Ly6C-APC (BD Bioscience) antibodies, and analyzed by a flow cytometry (Cytomics FC500; Beckman Coulter, Brea, CA, USA). […] After 24 h, PKH26 (Sigma-Aldrich)-fluorescent-labeled LLC cells were intravenously injected into TCM-stimulated C57BL6J mice. The mice were sacrificed after 16 h, and minced mouse lungs were digested with collagenase/dispase/DNase solution. The recruitment of MDSCs or PKH-26 labeled tumor cells in the lungs was determined by flow cytometry (CytoFlex; Beckman Coulter).
Briefly, LLC cells were implanted s.c. into C57BL/6 J mice. […] Tumor volumes for individual mice were determined at the indicated time points. Each group included five mice. […] Tumor size was determined at the indicated time points. […] Each group included 5–6 mice. The mice were administered tumor conditioned medium once daily for five consecutive days. […] The PKH-26 labeled LLC tumor cells were injected intravenously, the mice were sacrificed, and the cell number was analyzed after 16 h. Each group included 5–6 mice.

Sequence: FQEFAILVIK [Divalent peptide3A5]
- S100A8-mediated IL-8 secretion (SW480 cells): suppressed
- S100A8-mediated VEGF secretion (SW480 cells): suppressed
- inhibition of S100A8-induced phosphorylation of p38 [1]: 1.3 fold
- inhibition of S100A8-induced phosphorylation of p65 (NF-κB) [1]: 1.7 fold
- tumor growth, divalent peptide3A5 monotherapy [2]: inhibits tumor growth
- tumor growth, divalent peptide3A5 monotherapy ([2]; listed as divalent peptide3A5): suppressed tumor progression in a dose-dependent manner; also recorded: dose-dependently inhibited tumor growth; also recorded: inhibited tumor growth in vivo
- tumor growth, combination with 5-FU [2]: synergistically inhibits tumor growth with 5-FU combination
- tumor growth, combination with 5-FU ([2]; listed as divalent peptide3A5): synergistically suppressed tumor growth
- tumor growth, combination with bevacizumab ([2]; divalent peptide3A5 5 mg/kg i.p. + bevacizumab 4 mg/kg i.p.): synergistically suppressed tumor growth; also recorded: synergistically inhibited tumor growth with bevacizumab
- caspase-3 activation in SW480 tumors [3]: caused caspase-3 activation
- tumor cell proliferation in SW480 tumors [3]: suppressed tumor cell proliferation
- serum ALT (Balb nu/nu mice; 10 mg/kg): normal
- serum AST (Balb nu/nu mice; 10 mg/kg): normal
- serum LDH (Balb nu/nu mice; 10 mg/kg): normal
- body weight (Balb nu/nu mice): no significant difference
- hematological test (Balb nu/nu mice): no significant difference
- toxicity in C57BL6 mice (C57BL6 mice): did not display any toxicity
- MDSC cell number (MDSCs): reduced the cell population of MDSCs; also recorded: reduces cell number of MDSCs in peripheral blood
- intratumoral infiltrating CD8+ cells, alone (CD8+ cells; LLC tumor-bearing mice): increased
- intratumoral infiltrating CD8+ cells, combination with anti-PD-1 (CD8+ cells; combination with anti-PD-1 antibody): increased
- pulmonary recruitment of PKH26-labeled LLC cells / lung metastasis (PKH26-labeled LLC cells): suppresses the pulmonary recruitment of PKH26-labeled LLC cells
- induction of cytokines/chemokines [4]: suppress the induction of cytokines/chemokines in both tumor cells and macrophages
- LLC tumor growth, monotherapy (LLC tumor): suppresses tumor progression
- LLC tumor growth, monotherapy (LLC tumor; listed as divalent peptide3A5): inhibited in vivo tumor growth; also recorded: suppressed tumor growth in tumor-bearing mice
- LLC tumor, combination with anti-PD-1 antibody (LLC tumor; with anti-PD-1 every 3 days, 5–6 mice per group): improved the efficacy of anti-programmed death (PD)1 antibody; also recorded: increased the efficacy of anti-PD-1 therapy
